Where “and” joins values, the source holds several entries; their conditions need not be identical. Identical values can stand only once.
Experiments:
HeLa cell telomerase = target: T1, HeLa cell telomerase (Homo sapiens, UniProt O14746); experiment: HeLa cell telomerase assay; assay type: biochemical; details: for IC50: HeLa cell telomerase
T1 construct: endogenous in cells; host or cells: HeLa cells (human cervical tumor)

MDA-231 = experiment: Growth inhibition (MTT), MDA-231; assay type: cell-based; details: Homo sapiens, MDA-MB-231, 144 h, 6 days
Experimental: (§1) Exponentially growing cells (1-2×10^3 cells, unless specified otherwise) in 0.1 ml medium were seeded on day 0 in a 96-well microtiter plate. On day 1, 0.1 ml aliquots of medium containing graded concentrations of test analogs were added in duplicate to the cell plates. After incubation at 37° C. in a humidified incubator for 6 days, the plates were centrifuged briefly and 100 μl of the growth medium was removed. Cell cultures were incubated with 50 μl of 3-(4,5-dimethylthiazol-2-yl)-2,5-diphenyl-tetrazolium bromide, (MTT) at a concentration of 1 mg/ml in Dulbecco's phosphate buffered saline (PBS)) for 4 hr at 37° C. The resulting purple formazan precipitate was solubilized with 200 μl of 0.04 N HCl in isopropyl alcohol. Absorbance was monitored in a BioRad Model 3550 Microplate Reader at a test wavelength of 570 nm and a reference wavelength of 630 nm. The absorbance was transferred to a PC 486 computer. The IC50 values were determined by a computer program (EZ-ED50) that fits all the data to the following four-parameter logistic equation: [formula]
(§2) where Amax is the absorbance of control cells, Amin is the absorbance of cells in the presence of highest agent concentration, Y is the observed absorbance, X is the agent concentration, IC50 is the concentration of agent that inhibits the cell growth by 50% of control cells (based on the absorbance) and n is the slope of the curve.
(§3) This is due to the extracellular dephosphorylation of the mono-, di-, or triphosphates by […] or 5′-nucleotidase back to the nucleoside. With this in mind, the inventors used only nucleosides rather than nucleoside triphosphates in these studies. Cultured tumor cells were incubated with selected nucleosides at graded concentrations for 6 days and the growth inhibition was determined by the standard MTT assay.

PC3 = experiment: Growth inhibition (MTT), PC3; assay type: cell-based; details: Homo sapiens, PC-3, 144 h, 6 days
Experimental: as §1, §2, §3

BT-20 = experiment: Growth inhibition (MTT), BT-20; assay type: cell-based; details: Homo sapiens, BT-20, 144 h, 6 days
Experimental: as §1, §2, §3

DU145 = experiment: Growth inhibition (MTT), DU145; assay type: cell-based; details: Homo sapiens, DU-145, 144 h, 6 days
Experimental: as §1, §2, §3

Raji = experiment: Growth inhibition (MTT), Raji; assay type: cell-based; details: Homo sapiens, 144 h, 6 days
Experimental: as §1, §2, §3

SKBR3 = experiment: Growth inhibition (MTT), SKBR3; assay type: cell-based; details: Homo sapiens, SK-BR-3, 144 h, 6 days
Experimental: as §1, §2, §3

MCF-7 = experiment: Growth inhibition (MTT), MCF-7; assay type: cell-based; details: Homo sapiens, MCF7, 144 h, 6 days
Experimental: as §1, §2, §3

human cancer telomerase = target: T2, human cancer telomerase (Homo sapiens, UniProt O14746); experiment: Nucleoside triphosphate as telomerase substrate, dGTP replaced in modified reaction; assay type: biochemical
T2 construct: endogenous in cells; host or cells: human cancer cells
T2 sequence (O14746 whole entry): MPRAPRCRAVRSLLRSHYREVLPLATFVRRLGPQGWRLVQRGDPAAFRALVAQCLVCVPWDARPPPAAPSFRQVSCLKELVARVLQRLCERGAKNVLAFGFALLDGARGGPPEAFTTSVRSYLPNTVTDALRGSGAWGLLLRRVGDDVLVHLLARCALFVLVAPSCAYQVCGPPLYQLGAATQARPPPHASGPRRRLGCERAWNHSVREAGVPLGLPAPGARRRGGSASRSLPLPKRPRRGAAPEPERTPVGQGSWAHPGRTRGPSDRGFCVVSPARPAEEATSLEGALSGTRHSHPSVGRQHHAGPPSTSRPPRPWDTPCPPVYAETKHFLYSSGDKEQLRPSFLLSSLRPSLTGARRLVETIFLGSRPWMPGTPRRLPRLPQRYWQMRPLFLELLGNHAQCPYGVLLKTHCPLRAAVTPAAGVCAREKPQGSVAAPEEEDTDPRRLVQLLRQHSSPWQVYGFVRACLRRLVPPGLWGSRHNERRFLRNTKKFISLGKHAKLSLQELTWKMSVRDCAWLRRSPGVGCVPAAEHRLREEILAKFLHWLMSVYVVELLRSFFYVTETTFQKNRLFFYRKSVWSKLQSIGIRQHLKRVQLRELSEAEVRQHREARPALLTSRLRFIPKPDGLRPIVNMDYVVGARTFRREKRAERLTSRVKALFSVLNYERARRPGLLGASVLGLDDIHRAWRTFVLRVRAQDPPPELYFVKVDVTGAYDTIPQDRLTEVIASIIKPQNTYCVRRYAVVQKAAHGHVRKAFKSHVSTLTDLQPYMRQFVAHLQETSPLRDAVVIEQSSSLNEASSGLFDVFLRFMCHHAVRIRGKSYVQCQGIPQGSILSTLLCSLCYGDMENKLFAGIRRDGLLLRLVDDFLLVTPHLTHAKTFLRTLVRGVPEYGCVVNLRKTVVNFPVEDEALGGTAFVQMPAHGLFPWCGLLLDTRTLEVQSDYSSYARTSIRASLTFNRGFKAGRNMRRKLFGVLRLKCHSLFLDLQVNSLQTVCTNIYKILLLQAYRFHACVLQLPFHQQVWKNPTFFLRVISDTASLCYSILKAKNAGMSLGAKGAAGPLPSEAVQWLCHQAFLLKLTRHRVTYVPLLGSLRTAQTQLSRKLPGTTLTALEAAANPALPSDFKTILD
T2 sequence (O60832 whole entry partner): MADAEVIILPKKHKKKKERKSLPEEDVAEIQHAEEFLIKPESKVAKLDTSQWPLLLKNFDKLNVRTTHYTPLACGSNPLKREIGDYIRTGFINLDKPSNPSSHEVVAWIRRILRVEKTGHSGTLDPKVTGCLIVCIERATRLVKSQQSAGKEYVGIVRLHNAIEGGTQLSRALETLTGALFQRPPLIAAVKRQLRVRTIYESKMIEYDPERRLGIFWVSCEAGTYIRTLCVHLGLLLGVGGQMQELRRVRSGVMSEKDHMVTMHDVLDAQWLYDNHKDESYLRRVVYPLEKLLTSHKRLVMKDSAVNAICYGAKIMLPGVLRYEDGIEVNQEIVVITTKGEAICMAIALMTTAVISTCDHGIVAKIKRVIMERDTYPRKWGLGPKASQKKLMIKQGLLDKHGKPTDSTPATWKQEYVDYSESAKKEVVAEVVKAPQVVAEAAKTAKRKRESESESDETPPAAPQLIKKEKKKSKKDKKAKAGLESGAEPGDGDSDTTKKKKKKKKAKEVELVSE
T2 sequence (Q9NPE3 whole entry partner): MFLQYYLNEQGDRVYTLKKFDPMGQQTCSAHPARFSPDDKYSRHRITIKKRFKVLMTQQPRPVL
T2 sequence (Q9NX24 whole entry partner): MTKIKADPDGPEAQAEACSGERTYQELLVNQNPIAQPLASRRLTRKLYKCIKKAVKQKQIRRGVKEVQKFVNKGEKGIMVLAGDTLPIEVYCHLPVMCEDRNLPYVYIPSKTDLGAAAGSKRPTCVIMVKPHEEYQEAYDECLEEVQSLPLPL
T2 sequence (Q9NY12 whole entry partner): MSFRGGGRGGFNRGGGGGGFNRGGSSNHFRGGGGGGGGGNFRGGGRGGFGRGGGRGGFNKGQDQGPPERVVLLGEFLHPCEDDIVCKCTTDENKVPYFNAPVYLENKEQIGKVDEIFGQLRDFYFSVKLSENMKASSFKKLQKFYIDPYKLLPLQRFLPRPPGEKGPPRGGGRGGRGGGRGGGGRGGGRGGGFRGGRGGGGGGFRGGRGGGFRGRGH

human telomerase = target: T3, human telomerase (Homo sapiens, UniProt O14746); experiment: Cell-free telomerase inhibition, conventional or modified assay not stated; assay type: biochemical
T3 construct: telomerase in S100 extracts of transformed human fetal kidney tumor 293 cells (a processive telomerase); endogenous in cells; host or cells: human cells, (S100 extract)
T3 sequence (O14746 whole entry): as the sequence (O14746 whole entry) above
T3 sequence (O60832 whole entry partner): as the sequence (O60832 whole entry partner) above
T3 sequence (Q9NPE3 whole entry partner): as the sequence (Q9NPE3 whole entry partner) above
T3 sequence (Q9NX24 whole entry partner): as the sequence (Q9NX24 whole entry partner) above
T3 sequence (Q9NY12 whole entry partner): as the sequence (Q9NY12 whole entry partner) above
Experimental: Selected nucleoside triphosphates were tested in one or both of the “conventional” or “modified” telomerase assays described in Methods using the human processive and the CHO non-processive telomerases. Initially, three chain-terminators were selected: 2′,3′-dideoxythymidine triphosphate (ddTTP), 3′-fluoro-2′,3′-dideoxythymidine triphosphate (F-ddTTP), and 3′-azido-2′-, 3′-dideoxythymidine triphosphate (AZ-ddTTP) as prototype agents to investigate whether they could inhibit telomerase activity. The three compounds are dTTP analogs without a 3′-OH group for subsequent chain elongation. They may either incorporate into the telomere sequence and terminate further chain elongation or compete directly with dTTP for the substrate binding site in the telomerase reaction. In either case, telomerase activity is inhibited.

[1] = target: T4, human 293 cell telomerase (Homo sapiens, UniProt O14746); experiment: Modified telomerase assay (32P-dATP as radiolabeled substrate); assay type: biochemical
T4 construct: with 20 μl of S100 enzyme extract; endogenous in cells; host or cells: 293 cells (transformed human embryonic kidney), S100 extract
T4 sequence (O14746 whole entry): as the sequence (O14746 whole entry) above
T4 sequence (O60832 whole entry partner): as the sequence (O60832 whole entry partner) above
T4 sequence (Q9NPE3 whole entry partner): as the sequence (Q9NPE3 whole entry partner) above
T4 sequence (Q9NX24 whole entry partner): as the sequence (Q9NX24 whole entry partner) above
T4 sequence (Q9NY12 whole entry partner): as the sequence (Q9NY12 whole entry partner) above
Experimental: (§4) Telomerase was prepared from transformed human embryonic kidney 293 cell line. Human embryonic kidney 293 cells were grown in Joklik's modified MEM niedium (Sigma, St Louis, Mo.) supplemented with 5% fetal bovine serum at 37° C. in a humidified atmosphere with 5% CO2. The cells were subcultured at 1-2×10^5 cells/ml twice a week. When the cells grew to approximately 1×10^6 cells/ml, the cells (˜2×10^9 cells) were centrifuged and transferred into polypropylene centrifuge (50 ml) tubes and kept on ice. The cells were then centrifuged in a (Beckman GS-6R) centrifuge at 1200 RPM for 10 minutes at 4° C., and resuspended in PBS. The washed cells were resuspended in 15 ml Hypobuffer Mix (10 mM HEPES, pH 8.0, 3 mM KCl, 1 mM MgCl2, 1 mM dithiothreitol, 1 μM leupeptin, 0.1 mM PMSF, 10 μM pepstatin, 0.83 μg/ml chymostatin, 0.83 μg/ml antipain, and 43.2 units/ml RNase Guard) and centrifuged. The cell pellets were resuspended in 0.75×volumes Hypobuffer [Hypobuffer Mix+40 units/ml RNase Guard (Pharmacia, N.J.) to allow the cells to swell. The cell suspensions were homogenized to allow the telomerase to “leak” into the cytosolic fraction. The lysate was then poured into new, autoclaved, 3 ml polyallomer ultracentrifuge tubes and centrifuged at 100,000×g for 1 hour at 4° C. A top lipid layer was carefully removed and discarded, and the supernatant was collected. 1/50 of the volume of 5 M NaCl was added to the clear supernatant fluid to achieve a final concentration of 0.1 M. Sterile glycerol was added until the final glycerol concentration was 20%. The enzyme solution was aliquoted into Eppendorf tubes and quickly frozen in liquid nitrogen and stored at −70° C.
In the conventional telomerase assay, the concentrations of both non-radiolabeled nucleotides, dATP and dTTP, are 1 mM, and the concentration of the radiolabeled [^32P]dGTP is 1.56 μM. Because of the high concentration of dATP and dTTP, the standard assay may not be suitable for determining the potential telomerase inhibition of any “Adenine or Thymine” analogs. […] All other chemicals and reaction conditions are identical to the conventional assay.

[2] = target: T4, human 293 cell telomerase; experiment: Conventional telomerase assay (32P-dGTP as radiolabel substrate); assay type: biochemical
Experimental: as §4
The assay is based on the ability of the telomerase enzyme in the S100 fractions to recognize an 18-base DNA primer with the DNA sequence (TTAGGG)3. DNA polymerization initiates from the 3′-OH group of the oligonucleotide. By reading from its complementary internal RNA template, telomerase adds a repeated set of 5′-TTAGGG-3′ to the original 18-base primer. Non-synchronous “starts” and “terminations” among the different enzyme complexes result in a degenerative set of different length DNA primers occurring in 6-base increments. Incorporation of [α-^32P]dGTP at the guanine positions of the 5′-TTAGGG-3′ sequence allows the newly synthesized DNA fragments to be visualized by autoradiography. The resulting image forms the characteristic “ladder” structure that is used to identify telomerase activity. The images are scanned using a phosphoimager or laser densitometer (Molecular Dynamics, Sunnyvale, Calif.). Comparisons of the total volumes under the corresponding peaks are used to quantitate the total amount of [α-^32P] incorporated in the primer extension reaction.
The telomerase assay was initiated by mixing 20 μl of 2×reaction mix (100 mM Tris-OAc, pH 8.5, 100 mM KOAc, 10 mM β-mercaptoethanol, 2 mM spermidine, 2 mM MgCl2, 2 mM dATP, 2 mM dTTP, 2 μM oligo primer, potential inhibitors of interest at the appropriate concentration, and 50 μCi [α^32-P]dGTP) with 20 μl of S100 enzyme extract. The reaction mixture was then incubated at 30° C. for 1 hour. The reaction was stopped by incubating sequentially with 50 μl of the stop solution (10 mM Tris pH 7.5, 20 mM EDTA, 0.1 mg/ml RNase A) and 50 μl of deproteinase solution (10 mM Tris pH 7.5, 0.5% SDS, 0.3 mg/ml Proteinase K). The mixture was extracted with 50% phenol/50% chloroform (v/v). The DNA was then precipitated by adding 2.5×volumes of cold EtOH and letting it stand overnight at −70° C. The DNAs were separated on an 8% polyacrylamide/7M urea denaturing gel at 1600 V for 1.5 hours. The gel was dried and exposed to Kodak XAR-5 film to gel in −70° C. Typical autoradiographic exposures required 3-14 days.

[3] = system: human colon carcinoma HT29 cells; experiment: Growth inhibition (MTT), HT29 cells; assay type: cell-based; details: HT-29, 144 h, 6 days
Experimental: as §1, §2, §3

[4] = system: transformed human embryonic kidney 293 cells; experiment: Growth inhibition (MTT), 293 cells; assay type: cell-based; details: HEK293, 144 h, 6 days
Experimental: as §1, §2, §3

T1 sequence (O14746 whole entry): as the sequence (O14746 whole entry) above
T1 sequence (O60832 whole entry partner): as the sequence (O60832 whole entry partner) above
T1 sequence (Q9NPE3 whole entry partner): as the sequence (Q9NPE3 whole entry partner) above
T1 sequence (Q9NX24 whole entry partner): as the sequence (Q9NX24 whole entry partner) above
T1 sequence (Q9NY12 whole entry partner): as the sequence (Q9NY12 whole entry partner) above

IC50 (HeLa cell telomerase) [µM] | IC50 (PC3) [µM] | IC50 (BT-20) [µM] | IC50 (DU145) [µM] | IC50 (Raji) [µM] | IC50 (SKBR3) [µM] | IC50 (MCF-7) [µM] | SMILES | IC50 (MDA-231) [µM] | other results
4.9 | – | – | – | – | – | – | COc1nc(N)nc2c1ccn2[C@H]1C[C@H](O)[C@@H](CO)O1 [6-methoxy-7-deaza-2′-deoxyguanosine] | – | –
– | 120 | 258 | > 100 | 84.1 | 74 | 84.2 | Nc1nc2c(c(=S)[nH]1)CC=N2 [6-thio-7-deaza guanine] | > 50 | –
– | > 100 | 94.3 | > 100 | 84.1 | 74 | 88.6 | CSc1nc(N)nc2c1ccn2C1CC(O)C(CO)O1 (stereo not shown) [Compound 3, 6-Thiomethyl-7-deaza-2′-deoxyguanosine] | 281 | –
159 | 93.4 | 60.3 | > 50 | 43.4 | – | 57.5 | Cn1c(N)nc2c(ccn2[C@H]2C[C@H](O)[C@@H](CO)O2)c1=O [Compound 5, 1-N-methyl-7-deaza-2′-deoxyguanosine] | > 50 | –
4.9 | – | – | – | – | – | – | COc1nc(N)nc2c1ccn2[C@H]1C[C@H](O)[C@@H](COP(=O)(O)OP(=O)(O)OP(=O)(O)O)O1 [Compound 6, 6-Methoxy-7-deaza-2′-deoxyguanosine Triphosphate] | – | –
159 | – | – | – | – | – | – | Cn1c(N)nc2c(ccn2[C@H]2C[C@H](O)[C@@H](COP(=O)(O)OP(=O)(O)OP(=O)(O)O)O2)c1=O [Compound 7, 1-Methyl-7-deaza-2′-deoxyguanosine Triphosphate] | – | incorporation into telomeric ladders, replacing dGTP (human cancer telomerase; modified assay, 1 mM dTTP, 3.12 μM [α-32P]dATP): incorporation
– | – | – | – | – | – | – | CSc1nc(N)nc2c1ccn2[C@H]1C[C@H](O)[C@@H](COP(=O)(O)OP(=O)(O)OP(=O)(O)O)O1 [Compound 9, 6-Thiomethyl-7-deaza-2′-deoxyguanosine Triphosphate] | – | inhibition in a HeLa cell telomerase assay (HeLa cell telomerase; up to 62.5 μM): no inhibition
– | – | – | – | – | – | – | Nc1nc2c(ccn2[C@H]2C[C@H](O)[C@@H](COP(=O)(O)OP(=O)(O)OP(=O)(O)O)O2)c(=O)[nH]1 [NA022, 7-Deaza-2′-Deoxyguanosine-5′-Triphosphate] | – | IC50 (human telomerase; Summary values, assay variant not stated, read-out: IC50): 6.8 µM; times more potent than AZT-TP (human telomerase; from IC50 values): at least 50 times; Substrate of 293 Telomerase (human cancer telomerase; dGTP analog): Is a substrate Produces short telomere Substrate Inhibition; concentration above which there was no activity (human cancer telomerase; dGTP replaced, 1 mM dTTP, 3.12 μM [α-32P]dATP): > 1.5 mM; IC50 ([1]; [α-32P]dATP 3.12 μM, TTP and dGTP 1 mM): 56 µM and < 100 µM; Inhibition of 293 cell telomerase, modified assay ([1]; competing radioactive nucleotide 3.12 μM [α32P]dATP): concentration-dependent inhibition; remaining activity at 1 µM ([2]; 1.0 μM, read-out: % of Control): 99%; remaining activity at 2.5 µM ([2]; 2.5 μM, read-out: % of Control): 114%; remaining activity at 5 µM ([2]; 5.0 μM, read-out: % of Control): 67%; remaining activity at 7.5 µM ([2]; 7.5 μM, read-out: % of Control): 81%; remaining activity at 10 µM ([2]; 10 μM, read-out: % of Control): 24%; remaining activity at 25 µM ([2]; 25 μM, read-out: % of Control): 27%; remaining activity at 50 µM ([2]; 50 μM, read-out: % of Control): 18%; remaining activity at 75 µM ([2]; 75 μM, read-out: % of Control): 0%; remaining activity at 100 µM ([2]; 100 μM, read-out: % of Control): 0%; IC50 ([2]; [α-32P]dGTP 1.56 μM, TTP and dATP 1 mM): 11 µM; Inhibition of 293 Telomerase, Conventional Assay *dGTP ([2]; up to 2 mM): concentration-dependent inhibition
– | 209 | 84 | > 100 | 103 | 108 | 108 | Nc1nc2c(ccn2[C@H]2C[C@H](O)[C@@H](CO)O2)c(=S)[nH]1 [NA028, 6-Thio-7-Deaza-2′-Deoxyguanosine] | 117 | IC50 [3]: 461 µM; IC50 [4]: 461 µM
